Data on 81 compounds can be found in the METLIN SMRT retention time set (Domingo-Almenara et al. 2019).

Structures are written as SMILES.

The nature of the data set: gradient 5% acetonitrile 3 min, to 50% in 2 min, to 85% in 15 min, held 3 min, 100 µL/min. The conditions noted are these: column: Zorbax Extend-C18 2.1 x 50 mm; eluents: water / acetonitrile, 0.1% formic acid. The method in brief: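 The mobile phases were water and acetonitrile, each with 0.1% formic acid, pumped at 100 μL/min through a Zorbax Extend-C18 column (2.1 × 50 mm, 1.8 μm). Pure standards were injected as mixtures of ~100 molecules and detected by a quadrupole time-of-flight mass spectrometer in positive and negative ionization mode. Retention time came from computationally picked adduct peaks, each inspected by hand.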
The compound `CCc1nnc(C2CN(C)CC23CCN(S(=O)(=O)c2ccc(C)c(Cl)c2)CC3)o1` (stereo unspecified) yielded an RP-LC retention time of 675 s.
As for `NC1=N[C@@]2(c3cc(NC(=O)c4ccc(F)cn4)ccc3F)COC[C@H]2CS1`, the RP-LC retention time was determined as 674 s.
In the case of `CCc1nn2c(CNS(=O)(=O)c3ccc(F)c(C)c3)c(-c3ccccc3)nc2s1` it was 974 s; in that of `CN(C)c1ccc(CNC(=O)CCc2c(-c3ccc(Br)cc3)nc3ccccn23)cc1`, 599 s; in that of `CCn1ncc(NC(=O)COc2ccc(F)cc2)c(N2CCOCC2)c1=O`, 821 s.
In turn, `CCOc1ccc(NC(=O)C2CCN(S(=O)(=O)c3cc(-c4noc(C)n4)sc3C)CC2)cc1` registered an RP-LC retention time of 1000 s.
The same measure for `COc1ccc2c(c1)CCN(C(=O)CNC(=O)c1ccc(=O)[nH]c1)C2`: 583 s; for `CCNc1nc(C)cc(N2CCN(C(=O)Nc3cc(C)ccc3C)CC2)n1`: 668 s; for `CCOc1ccc(C(=O)NCCCN2CCN(c3ccccc3)CC2)cc1`: 586 s.
`O=C(NCc1ccc2c(c1)OCO2)C(=O)NCC1CCCO1` (stereo unspecified) registered an RP-LC retention time of 639 s.
With `COc1ccc(Cl)cc1S(=O)(=O)NC1CCc2nn(C)c(=O)n2CC1` (stereo unspecified), the RP-LC retention time was determined as 677 s.
`CC(NC(=O)c1cn(C)c2ncccc12)c1ccccn1` (stereo unspecified): the RP-LC retention time is 552 s.
On to `COc1ccccc1-c1noc(Cn2c(=O)n(-c3ccccc3F)c(=O)c3sccc32)n1`, for which the RP-LC retention time came to 880 s.
`O=c1ccc(-c2ccc3c(c2)OCO3)nn1CCc1nc(-c2cccc(Br)c2)no1` showed an RP-LC retention time of 1060 s.
The same measure for `CN(CC1CCOC1)C(=O)Nc1c(F)cccc1F` (stereo unspecified): 638 s; for `CCc1c(C(=O)O)nnn1-c1ccc(C)c(F)c1`: 744 s; for `CCc1c(C(=O)O)nnn1-c1ccc(C)c(Cl)c1`: 809 s.
The same measure for `Cc1ccc(Cl)cc1N1CCN(c2ncc(S(=O)(=O)c3ccccc3)c(N)n2)CC1`: 1250 s.
In the case of `CN(C)[C@@H]1CN(C(=O)c2ccc(F)c(F)c2)C[C@H]1CO` it was 531 s; in that of `CCOC(=O)c1nc(N(C)c2ccc(F)cc2)c2ccccc2n1`, 909 s.
The compound `O=C(NCCOc1cccc2cccnc12)c1cccc(-n2cnnn2)c1` had an RP-LC retention time of 574 s.
With `O=C(CCn1cnc2cc(-c3noc(-c4ccc(F)cc4)n3)ccc21)N1CCCC1`, the RP-LC retention time was 771 s.
The same measure for `CCC(C)Nc1nc(NC)nc(-n2cnc(SC)n2)n1` (stereo unspecified): 790 s; for `CC(=O)N1CCc2cc(N3CC(C(=O)Nc4ccccc4Br)CC3=O)ccc21` (stereo unspecified): 699 s.
Turning to `CN(C)c1ccc2c(c1)CN(C(=O)C1CCC1)CCO2`, the RP-LC retention time stood at 590 s.
In the case of `COC1CCC12CCN(C(=O)CC1CCN(C(C)=O)CC1)CC2` (stereo unspecified) it was 658 s; in that of `Cc1cc(C(N)=O)c2cc(Cl)ccc2n1`, 592 s; in that of `CC(C)NC(=O)N(C)Cc1ccsc1`, 730 s.
`COc1ccc2c(c1)C1(CCN(C(=O)CCc3ccccc3)C1)C(=O)N2C` (stereo unspecified) had an RP-LC retention time of 850 s.
In the case of `CCOc1ccc(NC(=O)Cn2c(=O)n(-c3ccccc3)c(=O)c3sc(SCC)nc32)cc1` it was 981 s; in that of `CCn1c(=O)c(N2CCCC(C(=O)N3CCN(c4cccc(OC)c4)CC3)C2)nc2ccccc21` (stereo unspecified), 1100 s.
On to `C/C=C(\CCC1NCCc2c1[nH]c1ccccc21)[Si](C)(C)C` (stereo unspecified), for which the RP-LC retention time is 815 s.
The same measure for `Cc1ccc(N2C(=O)CN(CCc3cccs3)[C@H]3CS(=O)(=O)C[C@H]32)cc1C`: 865 s; for `Cc1ccn2cc(-c3ccc(NC(=O)COc4ccccc4)cc3)nc2n1`: 663 s; for `Cc1c(-c2ccc(O)cc2)n(Cc2ccc(OCCN3CCCCCC3)cc2)c2ccc(O)cc12`: 720 s.
The same measure for `CN1C(=O)CCc2cc(NS(=O)(=O)c3cccc(Cl)c3)ccc21`: 783 s; for `Cc1ccc(-c2nc(C3CC(=O)N(c4ccc(F)cc4)C3)no2)c(C)c1` (stereo unspecified): 1120 s; for `CNC(=O)[C@@H]1CN(S(=O)(=O)C(C)C)C[C@H]1COC`: 579 s.
As to `COc1ccc(N2CCN(CC(=O)Nc3ccc4c(c3)Cc3ccccc3-4)C2=O)cc1`, the RP-LC retention time turned out to be 915 s.
In the case of `CCOc1ccc(N(CC)C(=O)c2nc(C)n(C3CCN(S(C)(=O)=O)CC3)c2C)cc1` it was 640 s; in that of `COCCCNC(=O)Cc1csc(SCc2ccc(Br)cc2)n1`, 830 s.
Take `CC(C)CC(=O)NC1CCN(c2ccc(F)cc2)C1=O` (stereo unspecified): the RP-LC retention time stood at 742 s.
The same measure for `COc1cc(C[C@H](C)N)c(OC)cc1I`: 705 s; for `O=C(Cc1cc(-c2ccccc2)on1)NCCN1CCOCC1`: 566 s; for `CCc1ccc(CNC(=O)C2CCCN(c3nc4c(s3)c(C)nn4-c3ccc(C)cc3)C2)cc1` (stereo unspecified): 1260 s.
In the case of `CCCCN(CC)C(=O)c1cc2c(=O)n3ccccc3nc2n1C` it was 813 s; in that of `Cc1ccc(OCC(=O)N(C)CC2(C)CCOCC2)cc1`, 799 s; in that of `CC(=O)c1sc(NC(=O)c2cc(Cl)ccc2Cl)nc1C`, 817 s.
Compound `COc1cc(OC)cc(-c2nc(-c3cccc(-c4ccnn4C)c3)no2)c1` had an RP-LC retention time of 1160 s.
The same measure for `CC1=C(c2ccc(F)cc2)S(=O)(=O)N=C1N1CCCN(C(=O)c2cccc(C)c2)CC1`: 859 s.
Turning to `Cc1oc(-c2[nH]ncc2C(=O)N(C)C)cc1S(=O)(=O)N1CCN(c2ccccc2)CC1`, the RP-LC retention time is 746 s.
The same measure for `Cc1noc(-c2ccnc(-n3ncc(C(=O)NCCc4c[nH]c5ccccc45)c3C)c2)n1`: 903 s; for `COc1cc(OC)cc(-c2noc(CCn3nc(-c4ccccc4)ccc3=O)n2)c1`: 951 s.
`CN1CCCCCCN(C(=O)c2cccn2C)[C@H]2CCC[C@H]2C1=O` gave an RP-LC retention time of 816 s.
`Cc1ccc(C)c(NC(=O)N2CCN(CCn3c(C(C)C)nc4cccnc43)CC2)c1`: the RP-LC retention time was found to be 621 s.
The same measure for `COc1ccc(OC)c(NC(=O)N2C[C@@H](F)C[C@H]2C(=O)N2CCCCC2)c1`: 720 s; for `Cc1cccc(CN2CCCN(c3ncccc3-c3nc(C(C)C)no3)CC2)c1`: 733 s.
`O=C(CCCN1CCN(Cc2ccc(F)cc2)C(=O)C1=O)Nc1ccc(Br)cc1F` registered an RP-LC retention time of 814 s.
`CN(C)S(=O)(=O)c1ccc2c(c1)N(CC(=O)N1CCCCC1)C(=O)C1CCCCN21` (stereo unspecified): the RP-LC retention time came out at 812 s.
The same measure for `CCn1nccc1C(=O)Nc1c(-c2ccccc2)nc2sc(N3CCCCC3)nn12`: 893 s.
The compound `O=C(Cn1c(=O)c2cc(-c3ccco3)nn2c2ncccc21)NC1CCCCC1` gave an RP-LC retention time of 793 s.
The same measure for `CC(C)n1cnc2cc(CNC(=O)c3ccccc3Cl)ccc21`: 597 s; for `Cn1c(N2CCC(C(=O)Nc3ccc(Cl)cc3)CC2)cc(=O)n(C)c1=O`: 732 s; for `Cc1cc(Cl)ccc1NC(=O)Cn1nc(C(=O)N2CCCCC2)c2ccccc21`: 778 s.
In the case of `CCOC(=O)C(=O)Nc1cc(Cl)ccc1C#N` it was 763 s.
`CCCN1CCN(CCCNC(=O)C2CCCN(S(=O)(=O)c3ccc4c(ccn4C)c3)C2)CC1` (stereo unspecified) had an RP-LC retention time of 598 s.
As to `CCc1cccc(NC(=O)C2CCCN(C(=O)C3Sc4ccccc4NC3=O)C2)c1` (stereo unspecified), the RP-LC retention time was determined as 818 s.
In the case of `CC(=O)NCC1(O)CCCC(C)C1` (stereo unspecified) it was 663 s; in that of `Cc1cc2c(c(=O)n(-c3ccc(F)cc3)c(=O)n2CC(=O)Nc2cccc(C(C)C)c2)n1C`, 921 s.
On to `Cc1ccc(C)c(N2CCN(S(=O)(=O)c3cc(-c4cnn5c(C)cc(C)nc45)ccc3C)CC2)c1`, for which the RP-LC retention time worked out at 1270 s.
`Brc1ccc(-c2nnc(SCCCCOc3ccccc3)o2)cc1` returned an RP-LC retention time of 1280 s.
In the case of `CCOc1ccccc1N1CCN(c2cc(C(=O)O)c3cc(NC(=O)CC)ccc3n2)CC1` it was 634 s; in that of `COc1ccc(C(=O)N2CCCC2c2nc(-c3ccccc3)n[nH]2)cc1` (stereo unspecified), 707 s; in that of `O=C(c1ccoc1)N1CCCC(Nc2ncnc3c2CCC3)C1` (stereo unspecified), 574 s.
The same measure for `CC1CCCN(S(=O)(=O)c2ccc(C(=O)Nc3nc4c(s3)CCc3ccccc3-4)cc2)C1` (stereo unspecified): 1260 s.
For `Cc1noc(-c2cccc(OC3CN(C(=O)NCC(C)C)C3)c2)n1`, the RP-LC retention time amounted to 808 s.
In the case of `CCc1noc(NC(C)=O)c1-c1ccc(OC)c(S(=O)(=O)N2CCC3(CC2)OCCO3)c1` it was 714 s; in that of `Cc1nc2nc(-c3ccccc3)nn2c(C)c1CC(=O)NC(C)C`, 700 s; in that of `CCn1c(=O)c(C(=O)NCc2cccnc2)nc2cccnc21`, 555 s.
`CC(=O)N1CCCSc2ccc(S(=O)(=O)N3CCN(c4cc(Cl)ccc4C)CC3)cc21`: the RP-LC retention time is 1180 s.
In the case of `Cc1cc(=O)n(CC(=O)Nc2ccccc2)c(N2CCCCC2)n1` it was 670 s.
